In patent publication US20130196986A1 (priority 2010, published 2013):

Biological target: T1, P2X7 receptor (Homo sapiens, UniProt Q99572)
T1 construct: stably expressing the full length P2X7 receptor; expressed in transfected cells
T1 sequence (Q99572 1-595): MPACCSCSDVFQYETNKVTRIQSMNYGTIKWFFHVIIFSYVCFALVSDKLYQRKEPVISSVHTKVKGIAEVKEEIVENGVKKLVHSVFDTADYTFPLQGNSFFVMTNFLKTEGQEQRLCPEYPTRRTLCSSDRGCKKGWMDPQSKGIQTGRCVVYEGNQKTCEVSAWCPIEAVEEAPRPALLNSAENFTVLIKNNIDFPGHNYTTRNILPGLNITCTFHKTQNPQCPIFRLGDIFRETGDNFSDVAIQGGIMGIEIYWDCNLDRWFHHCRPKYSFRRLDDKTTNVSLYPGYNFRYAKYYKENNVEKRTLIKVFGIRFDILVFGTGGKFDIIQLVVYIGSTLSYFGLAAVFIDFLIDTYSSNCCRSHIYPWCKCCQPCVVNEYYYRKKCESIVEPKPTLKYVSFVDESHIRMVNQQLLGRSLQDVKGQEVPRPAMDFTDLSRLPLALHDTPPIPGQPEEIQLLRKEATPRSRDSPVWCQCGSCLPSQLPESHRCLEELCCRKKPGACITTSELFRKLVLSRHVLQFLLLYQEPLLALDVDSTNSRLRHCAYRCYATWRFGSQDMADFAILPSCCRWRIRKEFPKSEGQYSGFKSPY
Experiment: Ca++ flux assay (FLIPR) in P2X7-HEK-293 cell line stably expressing the full length P2X7 receptor, Bz-ATP activation
Type: cell-based
Conditions: P2X7-HEK-293 cells; agonist Bz-ATP; fluorescence as total area over 90 seconds; read-out: P2X7 Ca Flux hu IC50
Summary of the method: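 HEK-293 cells stably expressing full-length P2X7 were loaded with Ca++-sensitive dye for 1 h, with compound added during loading. Cells were stimulated with Bz-ATP on FLIPR. Fluorescence was integrated as total area over 90 s, and IC50 was taken as 50% inhibition of the maximal Ca++ response.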

| Structure (SMILES) | IC50 [nM] |
| --- | --- |
| Cc1cccc(-n2ccn3c(SCc4ccccc4)nnc3c2=O)c1C [Compound 92, 3-(benzylthio)-7-(2,3-dimethylphenyl)-[1,2,4]triazolo[4,3-a]pyrazin-8(7H)-one] | 209 |
| Cc1c(-n2ccn3c(SCc4ccccc4)nnc3c2=O)cccc1C(F)(F)F [Compound 93, 3-(benzylthio)-7-(2-methyl-3-(trifluoromethyl)phenyl)-[1,2,4]triazolo[4,3-a]pyrazin-8(7H)-one] | 38.2 |
| Cc1nc(CSc2nnc3c(=O)n(-c4cccc(Cl)c4C)ccn23)cs1 [Compound 94, 7-(3-chloro-2-methylphenyl)-3((2-methylthiazol-4-yl)methylthio)-[1,2,4]triazolo[4,3-a]pyrazin-8(7H)-one] | 2560 |
| O=c1c2nnc(SCc3ccccc3)n2ccn1-c1cccc(Cl)c1Cl [Compound 95, 3-(benzylthio)-7-(2,3-dichlorophenyl)-[1,2,4]triazolo[4,3-a]pyrazin-8(7H)-one] | 110 |
| Cc1c(Cl)cccc1-n1ccn2c(SCc3cccnc3)nnc2c1=O [Compound 96, 7-(3-chloro-2-methylphenyl)-3-(pyridin-3-ylmethylthio)-[1,2,4]triazolo[4,3-a]pyrazin-8(7H)-one] | 4220 |
| Cc1c(Cl)cccc1-n1ccn2c(SCc3ccc4ccccc4c3)nnc2c1=O [Compound 97, 7-(3-chloro-2-methylphenyl)-3-(naphthalen-2-ylmethylthio)-[1,2,4]triazolo[4,3-a]pyrazin-8(7H)-one] | 2310 |
| Cc1c(Cl)cccc1-n1ccn2c(SCc3ccccn3)nnc2c1=O [Compound 98, 7-(3-chloro-2-methylphenyl)-3-(pyridin-2-ylmethylthio)-[1,2,4]thazolo[4,3-a]pyrazin-8(7H)-one] | 2340 |
| Cc1c(Br)cccc1-n1ccn2c(SCc3ccccc3)nnc2c1=O [Compound 99, 3-(benzylthio)-7-(3-bromo-2-methylphenyl)-[1,2,4]-triazolo[4,3-a]pyrazin-8(7H)-one] | 250 |
| O=c1c2nnc(SCc3ccccc3)n2ccn1-c1ccc(Cl)c(Cl)c1 [Compound 100, 3-(benzylthio)-7-(3,4-dichlorophenyl)-[1,2,4]triazolo[4,3-a]pyrazin-8(7H)-one] | 3920 |
| Cc1c(Cl)cccc1-n1ccn2c(SCc3cc(Cl)cc(Cl)c3)nnc2c1=O [Compound 101, 7-(3-chloro-2-methylphenyl)-3-(3,5-dichlorobenzylthio)-[1,2,4]triazolo[4,3-a]pyrazin-8(7H)-one] | 167 |
| Cc1c(Cl)cccc1-n1ccn2c(SCc3cc(F)c(F)c(F)c3)nnc2c1=O [Compound 102, 7-(3-chloro-2-methylphenyl)-3-(3,4,5-trifluorobenzylthio)-[1,2,4]triazolo[4,3-a]pyrazin-8(7H)-one] | 925 |
| Cc1c(Cl)cccc1-n1ccn2c(SCc3ccc(Cl)c(Cl)c3)nnc2c1=O [Compound 103, 7-(3-chloro-2-methylphenyl)-3-(3,4-dichlorobenzylthio)-[1,2,4]triazolo[4,3-a]pyrazin-8(7H)-one] | 1300 |
| Cc1c(Cl)cccc1-n1ccn2c(SCc3ccc(C(C)C)cc3)nnc2c1=O [Compound 104, 7-(3-chloro-2-methylphenyl)-3-(4-isopropylbenzylthio)-[1,2,4]triazolo[4,3-a]pyrazin-8(7H)-one] | 2740 |
| Cc1c(Cl)cccc1-n1ccn2c(SCc3c(F)cccc3F)nnc2c1=O [Compound 105, 7-(3-chloro-2-methylphenyl)-3-(2,6-difluorobenzylthio)-[1,2,4]triazolo[4,3-a]pyrazin-8(7H)-one] | 389 |
| Cc1c(Cl)cccc1-n1ccn2c(SCc3c(F)c(F)c(F)c(F)c3F)nnc2c1=O [Compound 106, 7-(3-chloro-2-methylphenyl)-3-(perfluorobenzylthio)-[1,2,4]triazolo[4,3-a]pyrazin-8(7H)-one] | 387 |
| Cc1c(Cl)cccc1-n1ccn2c(SCC(=O)OC(C)(C)C)nnc2c1=O [Compound 107, tert-butyl 2-(7-(3-chloro-2-methylphenyl)-8-oxo-7,8-dihydro-[1,2,4]triazolo[4,3-a]pyrazin-3-ylthio)acetate] | 1820 |
| COc1ccccc1C(=O)CSc1nnc2c(=O)n(-c3cccc(Cl)c3C)ccn12 [Compound 108, 7-(3-chloro-2-methylphenyl)-3-(2-(2-methoxyphenyl)-2-oxoethylthio)-[1,2,4]triazolo[4,3-a]pyrazin-8(7H)-one] | 507 |

| Structure (SMILES) | IC50 [nM] |
| --- | --- |
| Cc1c(Cl)cccc1-n1ccn2c(SCC(=O)c3ccccc3C(F)(F)F)nnc2c1=O [Compound 109, 7-(3-chloro-2-methylphenyl)-3-(2-oxo-2-(2-(trifluoromethyl)phenyl)ethylthio)-[1,2,4]-triazolo[4,3-a]pyrazin-8(7H)-one] | 448 |
| COc1ccccc1CSc1nnc2c(=O)n(-c3cccc(Cl)c3C)ccn12 [Compound 110, 7-(3-chloro-2-methylphenyl)-3-(2-methoxybenzylthio)-[1,2,4]triazolo[4,3-a]pyrazin-8(7H)-one] | 544 |
| Cc1c(Cl)cccc1-n1ccn2c(SCc3ccccc3C(F)(F)F)nnc2c1=O [Compound 111, 7-(3-chloro-2-methylphenyl)-3-(2-(trifluoromethyl)benzylthio)-[1,2,4]triazolo[4,3-a]pyrazin-8(7H)-one] | 515 |
| Cc1c(Cl)cccc1-n1ccn2c(SCCc3ccccc3)nnc2c1=O [Compound 112, 7-(3-chloro-2-methylphenyl)-3-(phenethylthio)-[1,2,4]triazolo[4,3-a]pyrazin-8(7H)-one] | 660 |
| COc1ccc(CSc2nnc3c(=O)n(-c4cccc(Cl)c4C)ccn23)cc1 [Compound 113, 7-(3-chloro-2-methylphenyl)-3-(4-methoxybenzylthio)-[1,2,4]triazolo[4,3-a]pyrazin-8(7H)-one] | 5650 |
| Cc1c(Cl)cccc1-n1ccn2c(SCc3cc(F)cc(F)c3)nnc2c1=O [Compound 114, 7-(3-chloro-2-methylphenyl)-3-(3,5-difluorobenzylthio)-[1,2,4]triazolo[4,3-a]pyrazin-8(7H)-one] | 697 |
| Cc1c(Cl)cccc1-n1ccn2c(SCc3ccc(F)c(F)c3)nnc2c1=O [Compound 115, 7-(3-chloro-2-methylphenyl)-3-(3,4-difluorobenzylthio)-[1,2,4]triazolo[4,3-a]pyrazin-8(7H)-one] | 893 |
| Cc1c(-n2ccn3c(S(=O)(=O)Cc4ccccc4)nnc3c2=O)cccc1C(F)(F)F [Compound 116] | 29 |
| Cc1c(-n2ccn3c([S+]([O-])Cc4ccccc4)nnc3c2=O)cccc1C(F)(F)F (stereo not shown) [Compound 117, 3-(benzylsulfinyl)-7-(2-methyl-3-(trifluoromethyl)phenyl)-[1,2,4]triazolo[4,3-a]pyrazin-8(7H)-one] | 76.5 |
| Cc1c(-n2ccn3c(S(=O)(=O)Cc4ccccc4-c4ccc(Cl)cc4)nnc3c2=O)cccc1C(F)(F)F [Compound 118, 3-((4′-chlorobiphenyl-2-yl)methylsulfonyl)-7-(2-methyl-3-(trifluoromethyl)phenyl)-[1,2,4]triazolo[4,3-a]pyrazin-8(7H)-one] | 6.9 |
| O=c1c2nnc(S(=O)(=O)Cc3ccccc3Cl)n2ccn1-c1cccc(C(F)(F)F)c1Cl [Compound 119, 7-(2-chloro-3-(trifluoromethyl)phenyl)-3-(2-chlorobenzylsulfonyl)-[1,2,4]triazolo[4,3-a]pyrazin-8(7H)-one] | 11 |
| Cc1c(-n2ccn3c(S(=O)(=O)Cc4ccccc4F)nnc3c2=O)cccc1C(F)(F)F [Compound 120, 3-(2-fluorobenzylsulfonyl)-7-(2-methyl-3-(trifluoromethyl)phenyl)-[1,2,4]triazolo[4,3-a]pyrazin-8(7H)-one] | 11.8 |
| Cc1c(-n2ccn3c(S(=O)(=O)Cc4ccccc4Cl)nnc3c2=O)cccc1C(F)(F)F [Compound 121, 3-(2-chlorobenzylsulfonyl)-7-(2-methyl-3-(trifluoromethyl)phenyl)-[1,2,4]triazolo[4,3-a]pyrazin-8(7H)-one] | 11.9 |
| Cc1c(-n2ccn3c(S(=O)(=O)Cc4cccs4)nnc3c2=O)cccc1C(F)(F)F [Compound 122, 7-(2-methyl-3-(trifluoromethyl)phenyl)-3-(thiophen-2-ylmethylsulfonyl)-[1,2,4]triazolo[4,3-a]pyrazin-8(7H)-one] | 12.3 |
| Cc1c(-n2ccn3c(S(=O)(=O)Cc4ccsc4)nnc3c2=O)cccc1C(F)(F)F [Compound 123, 7-(2-methyl-3-(trifluoromethyl)phenyl)-3-(thiophen-3-ylmethylsulfonyl)-[1,2,4]triazolo[4,3-a]pyrazin-8(7H)-one] | 12.4 |
| Cc1c(-n2ccn3c(S(=O)(=O)Cc4cccc(F)c4Cl)nnc3c2=O)cccc1C(F)(F)F [Compound 124, 3-(2-chloro-3-fluorobenzylsulfonyl)-7-(2-methyl-3-(trifluoromethyl)phenyl)-[1,2,4]triazolo[4,3-a]pyrazin-8(7H)-one] | 14.6 |
| Cc1c(-n2ccn3c(S(=O)(=O)Cc4ccsc4Br)nnc3c2=O)cccc1C(F)(F)F [Compound 125, 3-((2-bromothiophen-3-yl)methylsulfonyl)-7-(2-methyl-3-(trifluoromethyl)phenyl)-[1,2,4]triazolo[4,3-a]pyrazin-8(7H)-one] | 15.5 |
